According to the NIST ThermoML archive (doi:10.1016/j.jct.2006.09.008):
Numbers after ± are expanded uncertainties.

Experiment: molar heat capacity at constant pressure; mn = molality of the nth substance listed, in mol/kg
Conditions: 350 kPa, Liquid

O=[N+]([O-])[O-].O=[N+]([O-])[O-].[Sr+2] [strontium nitrate] + O
molar heat capacity at constant pressure [J/K/mol]
Conditions | m1 = 0.0499 | m1 = 0.1006 | m1 = 0.2005 | m1 = 0.4995 | m1 = 0.7992 | m1 = 0.9995 | m1 = 1.502 | m1 = 2.003 | m1 = 3.001
278.15 K | 75.4 ± 0.3 | 75.15 ± 0.3 | 74.75 ± 0.3 | 74.1 ± 0.3 | 73.96 ± 0.29 | 74.06 ± 0.3 | 74.66 ± 0.3 | 75.65 ± 0.3 | 77.88 ± 0.31
283.15 K | 75.27 ± 0.3 | 75.05 ± 0.3 | 74.7 ± 0.3 | 74.14 ± 0.3 | 74.04 ± 0.3 | 74.14 ± 0.3 | 74.76 ± 0.3 | 75.76 ± 0.3 | 77.98 ± 0.31
288.15 K | 75.18 ± 0.3 | 74.99 ± 0.3 | 74.68 ± 0.3 | 74.19 ± 0.3 | 74.11 ± 0.3 | 74.22 ± 0.3 | 74.84 ± 0.3 | 75.84 ± 0.3 | 78.06 ± 0.31
293.15 K | 75.13 ± 0.3 | 74.95 ± 0.3 | 74.67 ± 0.3 | 74.24 ± 0.3 | 74.18 ± 0.3 | 74.3 ± 0.3 | 74.92 ± 0.3 | 75.92 ± 0.3 | 78.12 ± 0.31
298.15 K | 75.1 ± 0.3 | 74.94 ± 0.3 | 74.68 ± 0.3 | 74.29 ± 0.3 | 74.25 ± 0.3 | 74.37 ± 0.3 | 74.99 ± 0.3 | 75.99 ± 0.3 | 78.17 ± 0.31
303.15 K | 75.08 ± 0.3 | 74.93 ± 0.3 | 74.7 ± 0.3 | 74.34 ± 0.3 | 74.31 ± 0.3 | 74.43 ± 0.3 | 75.05 ± 0.3 | 76.04 ± 0.3 | 78.21 ± 0.31
308.15 K | 75.08 ± 0.3 | 74.94 ± 0.3 | 74.72 ± 0.3 | 74.39 ± 0.3 | 74.37 ± 0.3 | 74.49 ± 0.3 | 75.1 ± 0.3 | 76.09 ± 0.3 | 78.24 ± 0.31
313.15 K | 75.09 ± 0.3 | 74.95 ± 0.3 | 74.75 ± 0.3 | 74.44 ± 0.3 | 74.42 ± 0.3 | 74.55 ± 0.3 | 75.15 ± 0.3 | 76.13 ± 0.3 | 78.27 ± 0.31
318.15 K | 75.11 ± 0.3 | 74.98 ± 0.3 | 74.79 ± 0.3 | 74.49 ± 0.3 | 74.48 ± 0.3 | 74.6 ± 0.3 | 75.2 ± 0.3 | 76.17 ± 0.3 | 78.29 ± 0.31
323.15 K | 75.14 ± 0.3 | 75.01 ± 0.3 | 74.83 ± 0.3 | 74.55 ± 0.3 | 74.54 ± 0.3 | 74.66 ± 0.3 | 75.25 ± 0.3 | 76.2 ± 0.3 | 78.31 ± 0.31
328.15 K | 75.17 ± 0.3 | 75.05 ± 0.3 | 74.87 ± 0.3 | 74.6 ± 0.3 | 74.59 ± 0.3 | 74.71 ± 0.3 | 75.29 ± 0.3 | 76.24 ± 0.3 | 78.32 ± 0.31
333.15 K | 75.21 ± 0.3 | 75.1 ± 0.3 | 74.92 ± 0.3 | 74.66 ± 0.3 | 74.65 ± 0.3 | 74.76 ± 0.3 | 75.33 ± 0.3 | 76.27 ± 0.3 | 78.34 ± 0.31
338.15 K | 75.26 ± 0.3 | 75.15 ± 0.3 | 74.98 ± 0.3 | 74.72 ± 0.3 | 74.71 ± 0.3 | 74.82 ± 0.3 | 75.37 ± 0.3 | 76.3 ± 0.3 | 78.36 ± 0.31
343.15 K | 75.32 ± 0.3 | 75.21 ± 0.3 | 75.04 ± 0.3 | 74.78 ± 0.3 | 74.77 ± 0.3 | 74.87 ± 0.3 | 75.41 ± 0.3 | 76.33 ± 0.3 | 78.38 ± 0.31
348.15 K | 75.39 ± 0.3 | 75.27 ± 0.3 | 75.11 ± 0.3 | 74.85 ± 0.3 | 74.83 ± 0.3 | 74.93 ± 0.3 | 75.46 ± 0.3 | 76.36 ± 0.3 | 78.41 ± 0.31
353.15 K | 75.46 ± 0.3 | 75.34 ± 0.3 | 75.18 ± 0.3 | 74.91 ± 0.3 | 74.89 ± 0.3 | 74.98 ± 0.3 | 75.5 ± 0.3 | 76.4 ± 0.3 | 78.43 ± 0.31
358.15 K | 75.54 ± 0.3 | 75.42 ± 0.3 | 75.25 ± 0.3 | 74.98 ± 0.3 | 74.95 ± 0.3 | 75.04 ± 0.3 | 75.55 ± 0.3 | 76.44 ± 0.3 | 78.47 ± 0.31
363.15 K | 75.62 ± 0.3 | 75.5 ± 0.3 | 75.33 ± 0.3 | 75.06 ± 0.3 | 75.02 ± 0.3 | 75.11 ± 0.3 | 75.6 ± 0.3 | 76.48 ± 0.31 | 78.52 ± 0.31
368.15 K | 75.71 ± 0.3 | 75.59 ± 0.3 | 75.42 ± 0.3 | 75.14 ± 0.3 | 75.09 ± 0.3 | 75.17 ± 0.3 | 75.65 ± 0.3 | 76.53 ± 0.31 | 78.57 ± 0.31
373.15 K | 75.81 ± 0.3 | 75.69 ± 0.3 | 75.51 ± 0.3 | 75.22 ± 0.3 | 75.17 ± 0.3 | 75.24 ± 0.3 | 75.71 ± 0.3 | 76.59 ± 0.31 | 78.64 ± 0.32
378.15 K | 75.92 ± 0.3 | 75.8 ± 0.3 | 75.61 ± 0.3 | 75.31 ± 0.3 | 75.25 ± 0.3 | 75.32 ± 0.3 | 75.78 ± 0.3 | 76.65 ± 0.31 | 78.72 ± 0.32
383.15 K | 76.04 ± 0.3 | 75.91 ± 0.3 | 75.72 ± 0.3 | 75.4 ± 0.3 | 75.33 ± 0.3 | 75.4 ± 0.3 | 75.85 ± 0.3 | 76.72 ± 0.31 | 78.82 ± 0.32
388.15 K | 76.16 ± 0.3 | 76.03 ± 0.3 | 75.83 ± 0.3 | 75.5 ± 0.3 | 75.42 ± 0.3 | 75.49 ± 0.3 | 75.93 ± 0.3 | 76.8 ± 0.31 | 78.94 ± 0.32
393.15 K | 76.3 ± 0.31 | 76.16 ± 0.3 | 75.95 ± 0.3 | 75.61 ± 0.3 | 75.52 ± 0.3 | 75.58 ± 0.3 | 76.02 ± 0.31 | 76.89 ± 0.31 | 79.07 ± 0.32
